# Laboratory results published in patent publication US10143668B2, “Hydroxy-substituted amino and ammonium derivatives and their medical use” (GRI BIO, INC., priority 2011, dated 2018).
# How the values were obtained:
# [1] = tested on: RBL-2H3 cells; assay: Maximum tolerated concentration (cytotoxicity by lactate dehydrogenase release); assay type: cell-based, rat
# Description: The safety index (SI) of a test compound is the ratio between the maximum tolerated concentration and the IC50 and is used as a measure of the relative safety of the test compound.
# [2] = tested on: RBL-2H3 cells; assay: Inhibition of mast cell degranulation (β-hexosaminidase release); assay type: cell-based; settings: Rattus norvegicus, RBL-2H3 cells sensitized with anti-DNP IgE, triggered with DNP-HSA
# Description: Mast cells are key effector cells involved in allergic and inflammatory diseases, and the Rat Basophilic Leukemia clone 2H3 (RBL-2H3) cell line is a commonly used model of allergen dependent immune modulator release (degranulation) in mast cells. On their surface, they express the high affinity receptor for IgE (FcεRI) Upon binding of antigen-specific IgE to the receptor, cells become sensitized to the IgE specific antigen (allergen). When IgE-sensitized cells then encounter multivalent antigen, the antigen clusters IgE-FcεRI complexes and initiates a signal transduction cascade that leads to degranulation, that is, the release of inflammatory mediators, such as cytokines, eicosanoids, histamine and enzymes. The assay can be used as a screening method to identify immune-modulating compounds, in particular compounds useful in the medical management of allergic and inflammatory diseases and asthma. β-hexosaminidase was previously shown to be released with the same kinetics as histamine (Schwartz et al., J Immunology; 123:1445-1450 (1979)), thus offering a simple means to monitor degranulation. The RBL-2H3 cell line has been successfully used to identify compounds with anti-allergic activity (Choo et al. Planta Med., 69:518-522 (2003)).
# Cell Culture: RBL-2H3 cells obtained from the German Collection of Microorganisms and Cell Cultures (ACC312) (Braunschweig, Germany) were maintained in 70% Minimum Essential Medium with Earle's Salts, 20% RPMI 1640 Medium, 10% FBS and 2 mM L-glutamine in 95% air/5% CO2 at 37° C. and routinely checked for mycoplasma contamination. Cells were passaged every 3-4 days; after washing cells once with 35 ml PBS cells were incubated 8 min with 5 ml 0.05% Trypsin-EDTA solution at 37° C. Cells were removed from the incubator, 15 ml culture medium was added and cells were resuspended by repeated pipetting.
# Cell seeding: cells were harvested with Trypsin-EDTA as described and 50-100 μl cell suspension seeded into Costar CellBind 24 well cluster plates (no. 3337). Plates were kept for 30 min at RT under the sterile hood before being transferred to the incubator. Cells were used within one or two days after seeding.
# For sensitization, cells for immediate use were sensitized 6-12 h after plating; cells to be used the following day were sensitized 26-38 h after plating. Culture plates were removed from the incubator and checked for cell growth and contamination. The medium was discarded and cells were sensitized with anti-DNP IgE (0.4 μg/ml) in 0.4 ml culture medium overnight. Following overnight sensitization, cells were washed with 0.8 ml pre-warmed TyB and 0.38 ml test compound or vehicle control (supplemented or not with 1% FBS) were added to duplicate wells. Samples were adjusted to contain 1% vehicle for test compounds dissolved in organic solvents. Cells were incubated for 1 h at 37° C. At the end of the incubation period, cells were routinely stimulated with 20 μl DNP-HSA (2 μg/ml; final concentration 0.1 μg/ml) diluted in TyB and cells were incubated for 15 min at 37° C. Alternatively, cells were stimulated with 20 μl 5 μM ionomycin (final concentration 0.25 μM) or 20 μl 5 μM thapsigargin (final concentration 0.25 μM), both in the absence or presence of 20 nM PMA (final concentration). […]
# MUG substrate solution, 100 μl, were added to supernatant and lysate samples and plates were incubated 30 min at 37° C. […] Fluorescene was measured at 365 nm excitation and 440 nm emmission wavelengths. […]
smiles,measurement,setting,value
"CCCCCCCCCCCCCC[N+](C)(C)CC(=O)N(C)C[C@H](O)[C@@H](O)[C@H](O)[C@H](O)CO [Compound 1a, N-(2-(Dimethyl(tetradecyl)ammonio)acetyl)-N-methyl-D-glucamine chloride]",MTC (maximum tolerated concentration),[1]; highest concentration not causing cytotoxicity (LDH release),150 µM
same,SI (safety index),[1]; ratio between MTC and IC50,39.5
same,IC50,[2],3.8 µM
